Source: PubChem BioAssay AID2060489 (Molecular Pharmacology Branch, DTP, NCI, 2025)

Test system: 922993-354-T-J3-PDC complex spheroids, viability
Test: Anticancer human tumor 922993-354-T-J3-PDC patient-derived endometrial carcinoma cell line growth inhibition [GQUAD]
Conditions: for IC50: curve of first compound; for viability, T/C: stronger effect = lower value; active means viability on the fitted dose curve at most 10% of control; inactive means the rest
Summary of the method: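 Tumor cells were grown as complex spheroids with HUVEC endothelial cells and mesenchymal stem cells as stroma. G-quadruplex stabilizers were combined with targeted agents over half-log dilutions from near the clinical Cmax, or from 10 microM.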

[1] = second compound 0.0316 µM, first compound 0.0316 µM
[2] = second compound 0.0316 µM, first compound 0.1 µM
[3] = second compound 0.0316 µM, first compound 0.316 µM
[4] = second compound 0.0316 µM, first compound 1 µM
[5] = second compound 0.0316 µM, first compound 3.16 µM
[6] = second compound 0.0316 µM, first compound 10 µM
[7] = second compound 0.1 µM, first compound 0.0316 µM
[8] = second compound 0.1 µM, first compound 0.1 µM
[9] = second compound 0.1 µM, first compound 0.316 µM
[10] = second compound 0.1 µM, first compound 1 µM
[11] = second compound 0.1 µM, first compound 3.16 µM
[12] = second compound 0.1 µM, first compound 10 µM
[13] = second compound 0.316 µM, first compound 0.0316 µM
[14] = second compound 0.316 µM, first compound 0.1 µM
[15] = second compound 0.316 µM, first compound 0.316 µM
[16] = second compound 0.316 µM, first compound 1 µM
[17] = second compound 0.316 µM, first compound 3.16 µM
[18] = second compound 0.316 µM, first compound 10 µM
[19] = second compound 1 µM, first compound 0.0316 µM
[20] = second compound 1 µM, first compound 0.1 µM
[21] = second compound 1 µM, first compound 0.316 µM
[22] = second compound 1 µM, first compound 1 µM
[23] = second compound 1 µM, first compound 3.16 µM
[24] = second compound 1 µM, first compound 10 µM
[25] = second compound 3.16 µM, first compound 0.0316 µM
[26] = second compound 3.16 µM, first compound 0.1 µM
[27] = second compound 3.16 µM, first compound 0.316 µM
[28] = second compound 3.16 µM, first compound 1 µM
[29] = second compound 3.16 µM, first compound 3.16 µM
[30] = second compound 3.16 µM, first compound 10 µM
[31] = second compound 10 µM, first compound 0.0316 µM
[32] = second compound 10 µM, first compound 0.1 µM
[33] = second compound 10 µM, first compound 0.316 µM
[34] = second compound 10 µM, first compound 1 µM
[35] = second compound 10 µM, first compound 3.16 µM
[36] = second compound 10 µM, first compound 10 µM
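Further: spheroids exposed to compounds for seven days.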
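Wherever viability, T/C is given: 100% = DMSO vehicle control viability.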

CC1COCCN1c1cc(-c2ccnn2C)c2ccnc(-c3ccn[nH]3)c2n1 (stereo not drawn) + Cc1[nH]c2ccc(F)cc2c1-c1nc2c3cccnc3c3ncccc3c2[nH]1
280 nM: IC50 (second compound 0.316 µM)
216 nM: IC50 (second compound 10 µM)
188 nM: IC50 (second compound 0.0316 µM) | IC50 (second compound 3.16 µM)
inactive: viability, T/C [1] 84% | viability, T/C [2] 59.3% | viability, T/C [3] 44.3% | viability, T/C [4] 23.6% | viability, T/C [5] 21% | viability, T/C [6] 16.5% | viability, T/C [7] 82% | viability, T/C [8] 66% | viability, T/C [9] 45.9% | viability, T/C [10] 25.4% | viability, T/C [11] 20.9% | viability, T/C [12] 21.8% | viability, T/C [13] 108% | viability, T/C [14] 76.3% | viability, T/C [15] 50.5% | viability, T/C [16] 22.7% | viability, T/C [17] 17.5% | viability, T/C [18] 16.5% | viability, T/C [19] 93.2% | viability, T/C [20] 67% | viability, T/C [21] 49% | viability, T/C [22] 21.5% | viability, T/C [23] 20.1% | viability, T/C [24] 15.1% | viability, T/C [25] 98.2% | viability, T/C [26] 65.6% | viability, T/C [27] 37.6% | viability, T/C [28] 25% | viability, T/C [29] 27.2% | viability, T/C [30] 21.4% | viability, T/C [31] 104% | viability, T/C [32] 70.7% | viability, T/C [33] 39.4% | viability, T/C [34] 24.8% | viability, T/C [35] 26.2% | viability, T/C [36] 16.6%
243 nM: IC50 (second compound 1 µM)
234 nM: IC50 (second compound 0.1 µM)

O=c1[nH]cc(F)c(=O)[nH]1 + CN(C)c1ccc(Nc2c3ccc(NC(=O)CCN4CCCC4)cc3nc3cc(NC(=O)CCN4CCCC4)ccc23)cc1
5370 nM: IC50 (second compound 10 µM)
5900 nM: IC50 (second compound 0.0316 µM)
5830 nM: IC50 (second compound 1 µM)
4590 nM: IC50 (second compound 0.1 µM)
inactive: viability, T/C [1] 82.1% | viability, T/C [2] 84.7% | viability, T/C [3] 81.8% | viability, T/C [4] 91.8% | viability, T/C [5] 83.7% | viability, T/C [6] 21.4% | viability, T/C [7] 110% | viability, T/C [8] 93.9% | viability, T/C [9] 112% | viability, T/C [10] 81% | viability, T/C [11] 69.2% | viability, T/C [12] 15.7% | viability, T/C [13] 103% | viability, T/C [14] 100% | viability, T/C [15] 91.4% | viability, T/C [16] 78.1% | viability, T/C [17] 56.8% | viability, T/C [18] 22.5% | viability, T/C [19] 95.8% | viability, T/C [20] 100% | viability, T/C [21] 90.6% | viability, T/C [22] 105% | viability, T/C [23] 82.1% | viability, T/C [24] 21.9% | viability, T/C [25] 90.4% | viability, T/C [26] 113% | viability, T/C [27] 105% | viability, T/C [28] 98.2% | viability, T/C [29] 87.5% | viability, T/C [30] 18.8% | viability, T/C [31] 117% | viability, T/C [32] 135% | viability, T/C [33] 121% | viability, T/C [34] 117% | viability, T/C [35] 72.9% | viability, T/C [36] 23.1%
3930 nM: IC50 (second compound 0.316 µM)
5930 nM: IC50 (second compound 3.16 µM)

Cc1[nH]c2ccccc2c1CCNCc1ccc(/C=C/C(=O)NO)cc1 + CN(C)c1ccc(Nc2c3ccc(NC(=O)CCN4CCCC4)cc3nc3cc(NC(=O)CCN4CCCC4)ccc23)cc1
> 316 nM: IC50 (second compound 0.0316 µM) | IC50 (second compound 0.1 µM) | IC50 (second compound 0.316 µM) | IC50 (second compound 1 µM) | IC50 (second compound 3.16 µM) | IC50 (second compound 10 µM)
inactive: viability, T/C (second compound 0.0316 µM, first compound 0.000999 µM) 104% | viability, T/C (second compound 0.0316 µM, first compound 0.00316 µM) 78.9% | viability, T/C (second compound 0.0316 µM, first compound 0.00999 µM) 91.6% | viability, T/C [1] 67.8% | viability, T/C (second compound 0.0316 µM, first compound 0.0999 µM) 56.4% | viability, T/C [3] 62.5% | viability, T/C (second compound 0.1 µM, first compound 0.000999 µM) 73.2% | viability, T/C (second compound 0.1 µM, first compound 0.00316 µM) 85.3% | viability, T/C (second compound 0.1 µM, first compound 0.00999 µM) 94.2% | viability, T/C [7] 86.2% | viability, T/C (second compound 0.1 µM, first compound 0.0999 µM) 78.1% | viability, T/C [9] 53.1% | viability, T/C (second compound 0.316 µM, first compound 0.000999 µM) 94.5% | viability, T/C (second compound 0.316 µM, first compound 0.00316 µM) 94.4% | viability, T/C (second compound 0.316 µM, first compound 0.00999 µM) 89.1% | viability, T/C [13] 93% | viability, T/C (second compound 0.316 µM, first compound 0.0999 µM) 73.1% | viability, T/C [15] 61.7% | viability, T/C (second compound 1 µM, first compound 0.000999 µM) 70.3% | viability, T/C (second compound 1 µM, first compound 0.00316 µM) 95.9% | viability, T/C (second compound 1 µM, first compound 0.00999 µM) 101% | viability, T/C [19] 76.1% | viability, T/C (second compound 1 µM, first compound 0.0999 µM) 97% | viability, T/C [21] 59.5% | viability, T/C (second compound 3.16 µM, first compound 0.000999 µM) 101% | viability, T/C (second compound 3.16 µM, first compound 0.00316 µM) 81.4% | viability, T/C (second compound 3.16 µM, first compound 0.00999 µM) 94.8% | viability, T/C [25] 82.3% | viability, T/C (second compound 3.16 µM, first compound 0.0999 µM) 78.7% | viability, T/C [27] 57.4% | viability, T/C (second compound 10 µM, first compound 0.000999 µM) 121% | viability, T/C (second compound 10 µM, first compound 0.00316 µM) 118% | viability, T/C (second compound 10 µM, first compound 0.00999 µM) 106% | viability, T/C [31] 112% | viability, T/C (second compound 10 µM, first compound 0.0999 µM) 110% | viability, T/C [33] 61.3%

CC(C)n1c(=O)n(C)c2cnc3cc(F)c(-c4ccc(OCCCN5CCCCC5)nc4)cc3c21 + CN(C)c1ccc(Nc2c3ccc(NC(=O)CCN4CCCC4)cc3nc3cc(NC(=O)CCN4CCCC4)ccc23)cc1
inactive: viability, T/C [1] 118% | viability, T/C [2] 84.9% | viability, T/C [3] 99.3% | viability, T/C [4] 59.6% | viability, T/C [5] 91.7% | viability, T/C [6] 71.4% | viability, T/C [7] 114% | viability, T/C [8] 89.5% | viability, T/C [9] 101% | viability, T/C [10] 73.3% | viability, T/C [11] 81.7% | viability, T/C [12] 59% | viability, T/C [13] 99.3% | viability, T/C [14] 91.7% | viability, T/C [15] 97% | viability, T/C [16] 70.2% | viability, T/C [17] 84.7% | viability, T/C [18] 70.9% | viability, T/C [19] 81.2% | viability, T/C [20] 97% | viability, T/C [21] 92.2% | viability, T/C [22] 82.1% | viability, T/C [23] 77.1% | viability, T/C [24] 65% | viability, T/C [25] 96.8% | viability, T/C [26] 103% | viability, T/C [27] 98.5% | viability, T/C [28] 76% | viability, T/C [29] 67.6% | viability, T/C [30] 43% | viability, T/C [31] 114% | viability, T/C [32] 73.7% | viability, T/C [33] 114% | viability, T/C [34] 67% | viability, T/C [35] 36.1% | viability, T/C [36] 32.3%
1820 nM: IC50 (second compound 10 µM)
> 10000 nM: IC50 (second compound 0.0316 µM) | IC50 (second compound 0.1 µM) | IC50 (second compound 0.316 µM) | IC50 (second compound 1 µM)
7040 nM: IC50 (second compound 3.16 µM)
